Measurements: PMC8399443, “Synthesis, Biological Evaluation, and In Silico Modeling of N-Substituted Quinoxaline-2-Carboxamides” (Pharmaceuticals, 2021)
Where “and” joins values, the source holds several entries; their conditions need not be identical. Identical values can stand only once. Like-named read-outs stand apart in the source and are kept apart here.

How the values were obtained:
C. albicans = experiment: In vitro antifungal activity, microdilution broth (EUCAST); type: cell-based; settings: Candida albicans
C. krusei = experiment: as above; type: cell-based, Candida krusei; settings: Pichia kudriavzevii
C. parapsilosis = experiment: as above; type: cell-based, Candida parapsilosis; settings: Lodderomyces parapsilosis
C. tropicalis = experiment: as above; type: cell-based; settings: Candida tropicalis
A. flavus = experiment: as above; type: cell-based; settings: Aspergillus flavus
L. corymbifera = experiment: as above; type: cell-based; settings: Lichtheimia corymbifera
T. interdigitale = experiment: as above; type: cell-based; settings: Trichophyton interdigitale
A. fumigatus = experiment: as above; type: cell-based; settings: Aspergillus fumigatus
Mtb H37Ra [1] = settings: cited from earlier work
Mtb H37Ra [2] = experiment: In vitro antimycobacterial activity, Microplate Alamar Blue Assay (MABA); type: cell-based, Mycobacterium tuberculosis; settings: Mycobacterium tuberculosis, H37RA, read-out: MIC Mtb H37Ra
M. smegmatis = experiment: In vitro antimycobacterial activity, MABA; type: cell-based, Mycobacterium smegmatis; settings: Mycolicibacterium smegmatis; MABA; read-out: MIC M. smeg
M. aurum = experiment: In vitro antimycobacterial activity, MABA; type: cell-based, Mycobacterium aurum; settings: Mycolicibacterium aurum; MABA; read-out: MIC M. aurum
HepG2 cell line = experiment: In vitro cytotoxicity, CellTiter 96 (MTS); type: cell-based; settings: Homo sapiens, read-out: HepG2 IC50
S. aureus = experiment: In vitro antibacterial activity, microdilution broth (EUCAST); type: cell-based; settings: Staphylococcus aureus
MRSA = experiment: as above; type: cell-based, Staphylococcus aureus methicillin resistant; settings: Staphylococcus aureus
E. faecalis = experiment: as above; type: cell-based; settings: Enterococcus faecalis
E. coli = experiment: as above; type: cell-based; settings: Escherichia coli
P. aeruginosa = experiment: as above; type: cell-based; settings: Pseudomonas aeruginosa
S. epidermidis = experiment: as above; type: cell-based; settings: Staphylococcus epidermidis
K. pneumoniae = experiment: as above; type: cell-based; settings: Klebsiella pneumoniae
S. marcescens = experiment: as above; type: cell-based; settings: Serratia marcescens
[3] = In vitro cytotoxicity, non-cancerous cells; type: cell-based; settings: human, HK-2 kidney cortex proximal tubule cells (non-cancerous); 24 hours incubation
[4] = test system: human glioblastoma U-87 MG cell line; experiment: In vitro cytotoxicity; type: cell-based; settings: 24 h, read-out: Cytotoxicity IC50 U-87 MG
[5] = test system: human epithelial kidney cancer A498 cell line; experiment: In vitro cytotoxicity; type: cell-based; settings: A498, 24 h, read-out: Cytotoxicity IC50 A498
[6] = test system: human prostate cancer PC-3 cell line; experiment: In vitro cytotoxicity; type: cell-based; settings: PC-3, 24 h, read-out: Cytotoxicity IC50 PC-3
[7] = test system: human ovarian cancer SK-OV-3 cell line; experiment: In vitro cytotoxicity; type: cell-based; settings: SK-OV-3, 24 h, read-out: Cytotoxicity IC50 SK-OV-3
[8] = 48 h, standards, read-out: MIC Candida albicans
[9] = 48 h, standards, read-out: MIC Aspergillus flavus
[10] = 48 h, standards, read-out: MIC Lichtheimia corymbifera
[11] = 72 h, standards, read-out: MIC Trichophyton interdigitale
[12] = 48 h, standards, read-out: MIC Aspergillus fumigatus

With C[C@@H](c1ncncc1F)[C@](O)(Cn1cncn1)c1ccc(F)cc1F [voriconazole] the MIC (C. albicans; [8]) was greater than 16 µg/mL, the MIC (C. krusei; 48 h, standards) was 0.5 µg/mL and the MIC (C. parapsilosis; 48 h, standards) was 8 µg/mL. For the same compound, the MIC (C. tropicalis; 48 h, standards) was greater than 16 µg/mL, the MIC (A. flavus; [9]) was greater than 16 µg/mL and the MIC (L. corymbifera; [10]) was greater than 16 µg/mL. The MIC (T. interdigitale; [11]) was greater than 16 µg/mL and the MIC (A. fumigatus; [12]) was 1 µg/mL.

For CC(=O)Oc1ccc(COC(=O)c2cnc3ccccc3n2)cc1 [4-acetoxybenzyl quinoxaline-2-carboxylate], the “MIC for Mtb H37Ra” value (Mtb H37Ra [1]; Figure 2b) is listed as 0.5 µg/mL.

In the case of O=C(NCc1cccc2ccccc12)c1cnc2ccccc2n1 [Compound 29, N-(naphthalen-1-ylmethyl)quinoxaline-2-carboxamide], the MIC (Mtb H37Ra [2]) is reported as ≥ 250 µg/mL and ≥ 798 µM, the MIC (M. smegmatis) is reported as ≥ 125 µg/mL and ≥ 399 µM and the MIC (M. aurum) is reported as ≥ 125 µg/mL and ≥ 399 µM. The IC50 (HepG2 cell line; HepG2, cytotoxicity, 24 h incubation, CellTiter 96) was 37.3 µM, the MIC (S. aureus; read-out: MIC S. aureus) was no less than 500 µM and the MIC (MRSA; read-out: MIC MRSA) was no less than 500 µM. The MIC (E. faecalis; read-out: MIC E. faecalis) was no less than 500 µM, the MIC (E. coli; read-out: MIC E. coli) was no less than 500 µM and the MIC (P. aeruginosa; read-out: MIC P. aeruginosa) was no less than 500 µM. The MIC (S. epidermidis; read-out: MIC S. epidermidis) was no less than 500 µM, the MIC (K. pneumoniae; read-out: MIC K. pneumoniae) was no less than 500 µM and the MIC (S. marcescens; read-out: MIC S. marcescens) was no less than 500 µM. It also gave an MIC (C. albicans; read-out: MIC C. albicans) of no less than 500 µM, an MIC (C. krusei) of no less than 500 µM and an MIC (C. parapsilosis) of no less than 500 µM. For the same compound, the MIC (C. tropicalis) was no less than 500 µM, the MIC (A. flavus; read-out: MIC A. flavus) was no less than 500 µM and the MIC (L. corymbifera; read-out: MIC L. corymbifera) was no less than 500 µM. For the same compound, the MIC (T. interdigitale; read-out: MIC T. interdigitale) was no less than 500 µM, the MIC (A. fumigatus; read-out: MIC A. fumigatus) was no less than 500 µM and the IC50 at 24 h [3] was greater than 250 µM. For the same compound, the IC50 [4] was greater than 250 µM, the IC50 [5] was greater than 250 µM and the IC50 [6] was 68.5 µM. It also gave an IC50 [7] of 49.6 µM.

Compound C[C@@H]1[C@H](O)[C@@H](C)/C=C/C=C/C=C/C=C/C=C/C=C/C=C/[C@H](O[C@@H]2O[C@H](C)[C@@H](O)[C@H](N)[C@@H]2O)C[C@@H]2O[C@](O)(C[C@@H](O)C[C@@H](O)[C@H](O)CC[C@@H](O)C[C@@H](O)CC(=O)O[C@H]1C)C[C@H](O)[C@H]2C(=O)O [amphotericin B] has an MIC (C. albicans; [8]) of 0.5 µg/mL, an MIC (C. krusei; 48 h, standards) of 1 µg/mL and an MIC (C. parapsilosis; 48 h, standards) of 0.5 µg/mL. The MIC (C. tropicalis; 48 h, standards) was 1 µg/mL, the MIC (A. flavus; [9]) was 8 µg/mL and the MIC (L. corymbifera; [10]) was 0.5 µg/mL. The MIC (T. interdigitale; [11]) was 2 µg/mL and the MIC (A. fumigatus; [12]) was 1 µg/mL.

For NC(=O)c1cnccn1 [PZA, pyrazinamide, reference compound], the MIC (Mtb H37Ra [2]) was ≥ 500 µg/mL and ≥ 4060 µM, the MIC (M. smegmatis) was no less than 500 µg/mL and the MIC (M. aurum) was no less than 500 µg/mL. The IC50 (HepG2 cell line; HepG2, 24 h) was greater than 1000 µM, the “MIC for Mtb H37Ra” value (Mtb H37Ra [1]; acidic pH, Figure 2) was less than 3.91 µg/mL and the “MIC for Mtb H37Ra” value (Mtb H37Ra [1]; neutral pH, Figure 2) was greater than 500 µg/mL.

CNC(C)C1CCC(N)C(OC2C(N)CC(N)C(OC3OCC(C)(O)C(NC)C3O)C2O)O1 (centres unmarked) [gentamicin] gave an MIC (S. aureus; 48 h, standards, read-out: MIC Staphylococcus aureus) of 1 µg/mL, an MIC (MRSA; 48 h, read-out: MIC Staphylococcus aureus methicillin resistant) of 16 to 32 µg/mL and an MIC (E. faecalis; 48 h, standards, read-out: MIC Enterococcus faecalis) of 8 µg/mL. It also gave an MIC (E. coli; 48 h, standards, read-out: MIC Escherichia coli) of 1 to 2 µg/mL, an MIC (P. aeruginosa; 48 h, standards, read-out: MIC Pseudomonas aeruginosa) of 0.5 µg/mL and an MIC (S. epidermidis; 48 h, standards, read-out: MIC Staphylococcus epidermidis) greater than 8 µg/mL. The MIC (K. pneumoniae; 48 h, standards, read-out: MIC Klebsiella pneumonia) was greater than 8 µg/mL and the MIC (S. marcescens; 48 h, standards, read-out: MIC Serratia marcescens) was 2 µg/mL.
